This data set can be described thus: recombinant barcode read abundance after kanamycin selection (control-corrected) (log10(CPM+1)); higher = more efficient recombination; sequences stand for … in AGTGCAGAGAAAATCGGCCAGTTTTCTCTGCCTGCAGTCCGCATGCCGT…AGATTTATGCAGCGGACTGCCTTTCTCCCAAAGTGATAAACCGGACAGTATCATGGACCGGTTTTCCCGGTAATCCGTATTTGCAAGGTTGGTTTCACT; site = the 11-nt target. The procedure, abridged:
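For this pooled screen, each oligo contained a promoter, a target, a barcode and the J23119-driven first 104 bases of the bridge RNA. Gibson cloning placed it into a vector supplying the remaining 73 bp and a T7-inducible recombinase, and the pool was co-electroporated into E. coli with a donor plasmid. Recombination efficiency is derived from barcode counts per million at recombinant junctions after averaging and control correction, and is expressed on a log scale as log10(CPM+1), with selection on chloramphenicol/ampicillin/kanamycin plus 0.1 mM IPTG against a chloramphenicol/ampicillin LB agar control.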
In the case of “TGACTACCTTGGGTTCTAACCTGTTGCCT (site TCGCTACCTAG)”, the “recombinant barcode read abundance (log10)” value is 0.0696.

“TGACTACCTTGGGTTCTAACCTGTTGCCT (site TGACTACCTAG)”: the “recombinant barcode read abundance (log10)” value was found to be 0.838. In the case of “TGACTAGCTTGGGTTCTAACCTGTTGCCT (site TGACTAGCTAG)”, the “recombinant barcode read abundance (log10)” value came out at 0.176. In the case of “TGACTAGCTTGGGTTCTAACCTGTTGCCT (site TGCCTAGCTAG)” it was 0.03; in that of “TGACTAGCTTGGGTTCTAACCTGTTGCCT (site TGGCTAGCTAG)”, 0.0206; in that of “TGACTAGCTTGGGTTCTAACCTGTTGCCT (site TGTCTAGCTAG)”, 0.0443. In the case of “TGAGAACCTTGGGTTCTAACCTGTTGCCT (site AGAGAACCTAG)” it was 0.666; in that of “TGAGAACCTTGGGTTCTAACCTGTTGCCT (site CGAGAACCTAG)”, 0.486; in that of “TGAGAACCTTGGGTTCTAACCTGTTGCCT (site GGAGAACCTAG)”, 0.118. Next, “TGAGAACCTTGGGTTCTAACCTGTTGCCT (site TGAGAACCTAG)”: 2.33.

For the sequence “TGAGAGGCTTGGGTTCTAACCTGTTGCCT (site TGAGAGGCTAG)”, the “recombinant barcode read abundance (log10)” value was 0.718. In the case of “TGAGAGGCTTGGGTTCTAACCTGTTGCCT (site TGAGCGGCTAG)” it was 0.173; in that of “TGAGAGGCTTGGGTTCTAACCTGTTGCCT (site TGAGGGGCTAG)”, 0.361; in that of “TGAGAGGCTTGGGTTCTAACCTGTTGCCT (site TGAGTGGCTAG)”, 0.638. As for “TGAGTCCCTTGGGTTCTAACCTGTTGCCT (site TGAGTCCCTAG)”, the “recombinant barcode read abundance (log10)” value is 2.03. Next, “TGAGTCCCTTGGGTTCTAACCTGTTGCCT (site TGCGTCCCTAG)”: 0.201. In the case of “TGAGTCCCTTGGGTTCTAACCTGTTGCCT (site TGGGTCCCTAG)” it was 0.444.

For “TGAGTCCCTTGGGTTCTAACCTGTTGCCT (site TGTGTCCCTAG)”, the “recombinant barcode read abundance (log10)” value worked out at 0.523. Next, “TGATATGCTTGGGTTCTAACCTGTTGCCT (site TGAAATGCTAG)”: 0.322; “TGATATGCTTGGGTTCTAACCTGTTGCCT (site TGACATGCTAG)”: 0.347; “TGATATGCTTGGGTTCTAACCTGTTGCCT (site TGAGATGCTAG)”: 0.0846. In the case of “TGATATGCTTGGGTTCTAACCTGTTGCCT (site TGATATGCTAG)”, the “recombinant barcode read abundance (log10)” value stood at 0.463. As to “TGATTGACTTGGGTTCTAACCTGTTGCTT (site GATGCACCTCC)”, the “recombinant barcode read abundance (log10)” value was determined as 0.194. Consider “TGATTGACTTGGGTTCTAACCTGTTGCTT (site TGATTGACTAA)”, for which the “recombinant barcode read abundance (log10)” value amounted to 0.0769. In the case of “TGCATAGCTTGGGTTCTAACCTGTTGCCA (site CTTGCGACTAA)” it was 0.068; in that of “TGCATAGCTTGGGTTCTAACCTGTTGCCA (site TGCATAGCTTG)”, 0.0795. Next, “TGCCACCCTTGGGTTCTAACCTGTTGCGT (site TACTACCCTAC)”: 0.0993; “TGCCACCCTTGGGTTCTAACCTGTTGCGT (site TGCCACCCTAC)”: 2.14. In the case of “TGCCCCGCTTGGGTTCTAACCTGTTGCCT (site ACTTAGTCTGA)” it was 0.341; in that of “TGCCCCGCTTGGGTTCTAACCTGTTGCCT (site TGCCCCGCTAG)”, 1.11; in that of “TGCCGAACTTGGGTTCTAACCTGTTGCCT (site AGCCGAACTAG)”, 0.0709. Regarding “TGCCGAACTTGGGTTCTAACCTGTTGCCT (site CGCCGAACTAG)”, the “recombinant barcode read abundance (log10)” value was 0.16.

Take “TGCCGAACTTGGGTTCTAACCTGTTGCCT (site GGCCGAACTAG)”: the “recombinant barcode read abundance (log10)” value was determined as 0.0503. Next, “TGCCGAACTTGGGTTCTAACCTGTTGCCT (site TGCCGAACTAG)”: 0.161; “TGCCGCTCTTGGGTTCTAACCTGTTGCCT (site TGACGCTCTAG)”: 1.35. On to “TGCCGCTCTTGGGTTCTAACCTGTTGCCT (site TGCCGCTCTAG)”, for which the “recombinant barcode read abundance (log10)” value worked out at 1.24. Next, “TGCCGCTCTTGGGTTCTAACCTGTTGCCT (site TGGCGCTCTAG)”: 0.277; “TGCCGCTCTTGGGTTCTAACCTGTTGCCT (site TGTCGCTCTAG)”: 0.0629.

Values taken from the supplement of paper PMC11208160.
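Note: IS621 recombinase and bridge RNA in Escherichia coli cells.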
